System: primary HSCs
Conditions: mRNA-Seq expression, Day_6_JQ1

## Cc1sc2c(c1C)C(c1ccc(Cl)cc1)=N[C@@H](CC(=O)OC(C)(C)C)c1nnc(C)n1-2 [JQ1, (S)-tert-butyl 2-(4-(4-chlorophenyl)-2,3,9-trimethyl-6H-thieno[3,2-f][1,2,4]triazolo[4,3-a][1,4]diazepin-6-yl)acetate]
  Nav2 value_2: 5.311
  Ndn value_2: 33.2623
  Nnmt value_2: 30.0607
  Npr2 value_2: 10.1828
  Nradd value_2: 15.4656
  Nuak1 value_2: 12.6565
  Nudt18 value_2: 6.501
  Ogdhl value_2: 4.726
  Paqr8 value_2: 7.424
  Pcolce value_2: 103.689
  Pde4dip value_2: 14.9114
  Pdia5 value_2: 20.7466
  Pgcp value_2: 20.5624
  Pgm2 value_2: 36.9612
  Pkig value_2: 41.8645
  Pla2g4a value_2: 14.8571
  Plod3 value_2: 47.8896
  Ppp2r5b value_2: 15.5804
  Praf2 value_2: 50.8557
  Prnp value_2: 204.182
  Psd3 value_2: 5.579
  Ptger3 value_2: 6.064
  Ptgfrn value_2: 24.2749
  Ptk2b value_2: 17.1497
  Qsox1 value_2: 91.7197
  Rasl11a value_2: 68.0496
  Rasl11b value_2: 27.3606
  Reep5 value_2: 42.7167
  Rftn1 value_2: 20.5933
  Rhoq value_2: 36.4737
  Rian value_2: 23.3478
  Samd4 value_2: 15.2321
  Scd1 value_2: 23.3211
  Sec23a value_2: 28.8101
  Sepw1 value_2: 95.2318
  Serping1 value_2: 119.681
  Setbp1 value_2: 2.434
  Shroom3 value_2: 5.757
  Slc7a6 value_2: 20.2814
  Slc24a3 value_2: 3.111
  Snurf value_2: 6.708
  Steap2 value_2: 17.4478
  Thbs2 value_2: 44.7287
  Tmem9 value_2: 20.5522
  Tmem176a value_2: 136.733
  Tpm2 value_2: 114.662
  Ttc19 value_2: 10.9985
  Ufsp2 value_2: 21.3133
  Ypel5 value_2: 34.2738
  Zfp651 value_2: 5.6272
  Zmat3 value_2: 18.2014
  Zranb3 value_2: 2.608
  value_2, gene 2210013O21Rik: 38.055
  value_2, gene 2610018G03Rik: 7.783
  value_2, gene 2700094K13Rik: 52.964
  value_2, gene 2810055F11Rik: 9.372
  value_2, gene AI464131: 6.393
  value_2, gene Acadsb: 26.5141
  value_2, gene Aes: 188.935
  value_2, gene Agl: 8.667
  value_2, gene Ankrd44: 7.9209
  value_2, gene Aplp1: 20.7172
  value_2, gene Arhgap1: 99.931
  value_2, gene Aurka: 17.2799
  value_2, gene Bace1: 40.101
  value_2, gene Bmpr1a: 33.5187
  value_2, gene Bsg: 560.767
  value_2, gene Cacna2d1: 7.615
  value_2, gene Calm3: 185.514
  value_2, gene Ccdc3: 44.0572
  value_2, gene Ccdc102a: 12.129
  value_2, gene Ccdc122: 5.501
  value_2, gene Ccne1: 13.7889
  value_2, gene Cdc42bpg: 9.647
  value_2, gene Cenpa: 18.2009
  value_2, gene Cfh: 33.8709
  value_2, gene Clip3: 25.4738
  value_2, gene Cpeb2: 7.639
  value_2, gene Cpxm1: 119.242
  value_2, gene Ctsf: 19.6316
  value_2, gene Cxxc5: 28.6295
  value_2, gene Dhcr24: 17.3636
  value_2, gene Dynlt3: 74.0523
  value_2, gene Efna4: 6.053
  value_2, gene Ephb2: 12.3025
  value_2, gene Fam26e: 11.6803
  value_2, gene Fam168a: 23.5828
  value_2, gene Fat1: 68.0733
  value_2, gene Fkbp9: 153.585
  value_2, gene Fstl1: 883.839
  value_2, gene Gadd45g: 151.82
  value_2, gene Ggcx: 22.6363
  value_2, gene Gjc2: 5.148
  value_2, gene Gpam: 13.2457
  value_2, gene Gpnmb: 100.919
  value_2, gene Gpr153: 15.34
  value_2, gene Grb10: 117.152
  value_2, gene Gstm4: 11.4343
  value_2, gene Gtse1: 16.4741
  value_2, gene Gucylb3: 35.4413
  value_2, gene Gxylt2: 8.031
  value_2, gene Hic1: 40.7263
  value_2, gene Hspb6: 15.1361
  value_2, gene Htra1: 128.76
  value_2, gene Irs2: 11.6492
  value_2, gene Itgb5: 206.046

From patent US20180325914A1, “INCREASING STORAGE OF VITAMIN A, VITAMIN D AND/OR LIPIDS” (Salk Institute for Biological Studies, priority 2014, published 2018)
